Substitutions are numbered along the chain they refer to. Entries after “also recorded” stand apart in the source; their conditions may differ.

As a reminder, the koff is a measure of how fast the partners let go of each other.

The conditions of data set [1]: in vivo; cited from earlier work.
Data set [2] relates to thrombus formation. Conditions: mice; given the day before and 2 hours prior; cited from earlier work.
Data set [3] deals with T1, GPIb alpha (Homo sapiens, UniProt P07359).
T1 construct: enables evaluation of GPIb alpha in its native form (i.e. correct orientation and proper post-translational modification); endogenous in cells; host or cells: human platelets purified by gel filtration, immobilized on Fab fragments of mAb 7E3
The data set is described as follows: Transient tether kinetics of VWF-A1 coated microspheres on surface-immobilized human platelets. The settings on record: VWF-A1 coated beads, wall shear stress 1 dyn cm^−2. Format: binding. As for the experimental part: In flow assays involving protein-coated microspheres, human or murine platelets purified by gel filtration are incubated with 10 mM sodium azide (NaN3), 50 ng/ml prostaglandin E1, and 10 μm indomethacin (Sigma Immunochemicals, St. Louis, Mo.) to reduce the possibility of activation and potential alterations in expression and/or distribution of GPIb alpha on their surface. Platelets are subsequently allowed to settle in stasis on Fab fragments of monoclonal antibodies that recognize either human (i.e., mAb 7E3) or murine (i.e., mAb NAD-1) alpha IIb/β3 in order to form a reactive substrate. […] Platelet coverage of <10% will be bound in this manner can remain relatively unactivated for up to 30 min as evident by morphology on light microscopic examination (FIG. 7A) and lack of expression of P-selectin by fluorescence microscopy (FIG. 7B).
To reduce the possibility of multiple bond formation that would result in a prolongation in interaction times between the beads and immobilized platelets, the lowest site densities of VWF-A1 capable of supporting these brief interactions is used, a value we found to correspond to ˜30 molecules μm^2. […] The force acting on the tether bond was calculated from force balance equations as stated above and koff plotted as a function of these forces. […]

The subject of data set [4] is human platelets. Briefly: Ex vivo platelet adhesion, human whole blood over immobilized plasma VWF or rVWF-A1, 1600 s^-1. The settings on record: for translocation velocities of human platelets: mean±s.e.m, n=4; for human platelet deposition as compared with same-species controls / human platelet accumulation on immobilized protein: human whole blood; for human platelet deposition as compared with same-species controls: 1600 s^-1, 4 min; for human platelet accumulation on immobilized protein: 1600 s^-1. It is filed as cell-based. As for the experimental part: (§1) Experiments were performed in a parallel-plate flow chamber as previously described (Offermanns, S. (2006) Circ. Res. 99, 1293-1304). For studies involving plasma VWF, a polyclonal anti-VWF antibody (Dako) was absorbed overnight (4° C.) to a six well tissue culture plate. Subsequently, the plate was washed and non-specific interactions blocked by the addition of TBS containing 3% BSA, pH 7.4 (1 h, 37° C.). Human or murine plasma obtained from heparinized whole blood was added and the plates placed at 37° C. for an additional 2 h. Generation, purification, and surface-immobilization of recombinant VWF-A1 proteins was performed as previously described (Doggett, T. A. et al. Biophys. J. 83, 194-205 (2002)). Both human and murine VWF-A1 constructs consist of amino acid residues 1238 to 1471, with a single intra-disulfide bond formed between residues 1272 and 1458 and were generated in bacteria. Citrated whole blood (150 μl) collected via cardiac puncture from anesthetized homozygous VWF^1326R>H or WT mice or from venopuncture from human volunteers was perfused over the immobilized substrates at a wall shear rate of 1600 s^−1 for 4 min, followed by washing with Tyrode's buffer under the identical flow conditions. The number of platelets attached per unit area (0.07 mm^2) and translocation velocities were determined by off-line analysis (Image-Pro Plus, Media Cybernetics). For GPIbα inhibition studies, the function-blocking mAb 6D1 (20 μg/ml) or mAb SZ2 (20 μg/ml; Beckman Coulter) was added to anticoagulated human blood for 30 min prior to use. Experiments were performed in triplicate on two separate days. An ELISA was used to ensure equivalent coating concentration of plasma and recombinant proteins (Denis, C. et al. (1998) Proc. Natl. Acad. Sci. USA 95, 9524-9529).

For data set [5], the system named is human platelets. Conditions: cited from earlier work.
Data set [6] concerns murine platelets. Briefly: Ristocetin-induced platelet aggregation assay (RIPA), murine platelet rich plasma. It is filed as cell-based, mouse. The protocol: In a Ristocetin-induced platelet aggregation assays, platelet GPIb alpha binding to wild type human VWF or mouse VWF was analyzed in the absence or presence of ristocetin as described by Inbal, et al. (1993, Thromb. Haemost., 70:1058-1062). In this method, platelet rich plasma (PRP) is placed in a clear cuvette containing a stir bar and inserted into the aggregometer. Platelet aggregation is induced by the addition of ristocetin. […] In fact, only at concentrations of ≧2.5 mg/ml was there any evidence of murine platelet aggregation observed (˜30%, FIG. 10C).

Data set [7] relates to murine platelets. Briefly: In vitro parallel plate flow chamber platelet adhesion on recombinant VWF-A1, 800 s^-1, murine platelets. It is filed as cell-based, mouse. The settings on record: wall shear rate 800 s^-1. As for the experimental part: (§2) The protein was subsequently used in a series of in vitro flow chamber assays to assess function. Washed human or murine platelets (5×10^7/ml) were infused through a parallel plate flow chamber containing glass cover slips coated with either human VWF-A1 or mouse VWF-A1 protein (100 μg/ml final concentration) at a shear rate of 800 s^−1. After 5 min of continuous flow, adherent platelets were quantified.
In the case of the latter, the murine A1 fragment was inserted into pET-11b (Stratagene) and purified as previously described (53).
Support for this hypothesis is provided by mutagenesis studies. By analyzing the data obtained from the crystal structure of the murine VWF-A1 domain, we have identified several residues that may participate in interactions with GPIb alpha (FIG. 15C). Residue 1326 was initially chosen for study and was mutated to the corresponding amino acid at the identical location in its human counterpart (from Arg to His). Subsequently, the ability of murine and human platelets to interact with this mutant protein substrate was evaluated at a wall shear rate of 800 s^−1. Incorporation of a histidine for arginine at position 1326 in murine VWF-A1 reduced murine platelet adhesion by ˜5-fold and increased translocation velocities of cells by ˜7-fold as compared to the WT mouse protein (FIGS. 13A, 13B, 16A, and 16B). […]

Data set [8] relates to human platelets. The data set is described as follows: In vitro parallel plate flow chamber platelet adhesion on recombinant VWF-A1, 800 s^-1, human platelets. Format: cell-based. Conditions: wall shear rate 800 s^-1. As for the experimental part:
as §2
Support for this hypothesis is provided by mutagenesis studies. By analyzing the data obtained from the crystal structure of the murine VWF-A1 domain, we have identified several residues that may participate in interactions with GPIb alpha (FIG. 15C). Residue 1326 was initially chosen for study and was mutated to the corresponding amino acid at the identical location in its human counterpart (from Arg to His). Subsequently, the ability of murine and human platelets to interact with this mutant protein substrate was evaluated at a wall shear rate of 800 s^−1. Incorporation of a histidine for arginine at position 1326 in murine VWF-A1 reduced murine platelet adhesion by ˜5-fold and increased translocation velocities of cells by ˜7-fold as compared to the WT mouse protein (FIGS. 13A, 13B, 16A, and 16B). […] These studies support the hypothesis that from a structural and functional standpoint, mouse and human VWF-A1 are very similar.

Data set [9] relates to murine platelets. Briefly: Ex vivo platelet adhesion, murine whole blood over immobilized plasma VWF or rVWF-A1, 1600 s^-1. Format: cell-based, mouse. The protocol:
as §1, with “For GPIbα inhibition studies, the function-blocking mAb 6D1 (20 μg/ml) or mAb SZ2 (20 μg/ml; Beckman Coulter) was added to anticoagulated human blood for 30 min prior to use. Experiments were performed in triplicate on two separate days. An ELISA was used to ensure equivalent coating concentration of plasma and recombinant proteins (Denis, C. et al. (1998) Proc. Natl. Acad. Sci. USA 95, 9524-9529).” left out

T1 sequence (P07359 17-652): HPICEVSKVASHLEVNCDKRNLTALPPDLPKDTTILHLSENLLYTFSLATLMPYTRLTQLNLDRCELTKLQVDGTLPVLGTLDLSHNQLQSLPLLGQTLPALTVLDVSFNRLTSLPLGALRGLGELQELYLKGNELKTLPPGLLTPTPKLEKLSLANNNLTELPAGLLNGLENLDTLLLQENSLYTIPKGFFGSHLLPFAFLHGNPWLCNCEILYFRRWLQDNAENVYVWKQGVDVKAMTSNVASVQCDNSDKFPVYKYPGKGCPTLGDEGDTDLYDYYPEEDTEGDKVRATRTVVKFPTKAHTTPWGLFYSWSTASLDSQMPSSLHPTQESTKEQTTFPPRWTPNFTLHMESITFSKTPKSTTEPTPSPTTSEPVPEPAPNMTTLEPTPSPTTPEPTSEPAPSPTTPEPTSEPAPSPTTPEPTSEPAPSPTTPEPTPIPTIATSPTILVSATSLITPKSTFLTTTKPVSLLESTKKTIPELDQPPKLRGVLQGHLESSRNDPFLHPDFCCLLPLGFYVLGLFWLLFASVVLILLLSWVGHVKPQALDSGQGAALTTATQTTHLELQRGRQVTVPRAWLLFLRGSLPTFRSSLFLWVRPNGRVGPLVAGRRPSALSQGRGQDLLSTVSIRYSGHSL

For `CCCCS(=O)(=O)N[C@@H](Cc1ccc(OCCCCC2CCNCC2)cc1)C(=O)O` [Tirofiban], the plasma half-life result in [1] was “approximately 2 hours”.

With `COC(=O)[C@H](c1ccccc1Cl)N1CCc2sccc2C1` [clopidogrel], the “maximal effective dose to reduce thrombus size and delay its formation” value in data set [2] is given as 50 mg/kg. As for “WT human VWF-A1: wild type recombinant human VWF-A1 domain”, the dissociation rate constant (koff) in [3] was determined as 6.5 s⁻¹. In the case of “human plasma VWF: native human plasma VWF”, the “translocation velocities of human platelets” value in data set [4] amounted to 3.2±0.1 μm/sec.

Turning to “murine plasma VWF: surface-bound wild type murine plasma VWF”, in data set [4], the “human platelet deposition as compared with same-species controls” value was 10%.

On to “murine plasma VWF^1326R>H: plasma VWF obtained from mice homozygous for VWF^1326R>H”, for which, in [4], the “human platelet accumulation on immobilized protein” value (“human platelet accumulation” for short) is listed as “comparable with its human counterpart” and the “translocation velocities of human platelets” value worked out at 3.5±0.1 μm/sec. Take ristocetin: in data set [5], the “concentration known to cause agglutination of human platelets” value is approximately 1.0 mg/mL. The “effect on murine platelets at the concentration that agglutinates human platelets” value in data set [6] (murine PRP, ristocetin ~1.0 mg/ml) is “no such effect; also recorded: had no effect”. For the same molecule, the platelet aggregation in data set [6] (murine PRP, ristocetin ≧2.5 mg/ml) is listed as approximately 30%. Turning to thrombin, the platelet aggregation in data set [6] (incubation of murine PRP with thrombin) is more than 90%.

B1: murine VWF-A1 1326R>H: recombinant mouse VWF-A1 domain with HIS for ARG at residue 1326 (protein)
chain: EDTPEPPLHNFYCSKLLDLVFLLDGSSMLSEAEFEVLKAFVVGMMERLHISQKRIRVAVVEYHDGSHAYLELKARKRPSELRRITSQIKYTGSQVASTSEVLKYTLFQIFGKIDRPEASHITLLLTASQEPPRMARNLVRYVQGLKKKKVIVIPVGIGPHASLKQIRLIEKQAPENKAFLLSGVDELEQRRDEIVSYLCDLAPEAPAPTQPPQVAHVTVSP
Take B1: in data set [7], the “increase of translocation velocities of murine platelets compared to WT mouse protein” value is approximately 7 fold and the “reduction of murine platelet adhesion compared to WT mouse protein” value was approximately 5 fold. In data set [4], the “human platelet accumulation” value is “comparable to its wild-type (WT) human counterpart”. The “human platelet interactions with the protein substrate” value in [8] was “comparable to that of WT human VWF-A1”. The “reduction of mouse platelet adhesion” value in data set [9] is recorded as approximately 75%.

B2: murine rVWF-A1: recombinant A1 domain of murine VWF, residues 1238 to 1471 (protein)
chain: QEPGGLVAPPTDAPVSSTTPYVEDTPEPPLHNFYCSKLLDLVFLLDGSSMLSEAEFEVLKAFVVGMMERLHISQKRIRVAVVEYHDGSRAYLELKARKRPSELRRITSQIKYTGSQVASTSEVLKYTLFQIFGKIDRPEASHITLLLTASQEPPRMARNLVRYVQGLKKKKVIVIPVGIGPHASLKQIRLIEKQAPENKAFLLSGVDELEQRRDEIVSYLCDLAPEAPAPTQPP
modifications: left off: small tags and cut ends
For B2, the “human platelet deposition as compared with same-species controls” value in data set [4] came to 25%.

B3: murine rVWF-A1 1330E>G: murine rVWF-A1 with human residue at position 1330 (E>G) (protein)
chain: B2 chain with E93G
modifications: left off: small tags and cut ends
Turning to B3, in [4], the “human platelet accumulation” value is on record as “failed to promote the interaction”.

B4: murine rVWF-A1 1370S>G: murine rVWF-A1 with human residue at position 1370, printed S>G (protein)
chain: B2 chain with G133S
modifications: left off: small tags and cut ends
notes: murine rVWF-A1 with human residue at position 1370, printed S>G
In the case of B4, the “human platelet accumulation” value in data set [4] is listed as “failed to promote the interaction”.
